Residue numbers refer to the chain shown, from its start. pIC50, pKi: −log10 of the molar value.
How the values were obtained:
[1] = molecular target: T1, Solute carrier family 2, facilitated glucose transporter member 2 (Homo sapiens, UniProt P11168); test: Inhibition of human GLUT2 expressed in Xenopus laevis oocytes assessed as reduction in [14C]fructose uptake by scintillation spectrometric method; format: cell-based
T1 sequence (P11168 whole entry): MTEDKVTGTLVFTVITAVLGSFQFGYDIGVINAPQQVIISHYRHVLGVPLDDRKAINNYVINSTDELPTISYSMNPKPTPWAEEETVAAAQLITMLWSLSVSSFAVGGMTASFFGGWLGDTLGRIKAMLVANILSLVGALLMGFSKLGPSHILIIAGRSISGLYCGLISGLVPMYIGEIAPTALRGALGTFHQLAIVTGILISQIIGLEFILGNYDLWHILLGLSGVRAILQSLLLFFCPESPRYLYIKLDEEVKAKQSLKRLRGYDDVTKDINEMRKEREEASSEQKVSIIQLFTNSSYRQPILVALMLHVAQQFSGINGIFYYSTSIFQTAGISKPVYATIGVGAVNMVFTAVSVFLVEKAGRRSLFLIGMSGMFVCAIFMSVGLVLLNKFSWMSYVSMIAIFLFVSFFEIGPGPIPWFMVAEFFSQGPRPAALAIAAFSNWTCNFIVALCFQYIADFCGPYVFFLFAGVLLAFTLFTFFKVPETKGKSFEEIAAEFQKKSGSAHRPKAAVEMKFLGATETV

[2] = molecular target: T2, Solute carrier family 2, facilitated glucose transporter member 4 (Rattus norvegicus, UniProt P19357); test: Competitive inhibition of GLUT4 in Wistar rat adipocytes assessed as reduction in insulin-stimulated 3-O-[3H]methyl-D-glucose uptake measured for 30 secs by Lineweaver-Burk plot analysis; format: cell-based
T2 sequence (P19357 whole entry): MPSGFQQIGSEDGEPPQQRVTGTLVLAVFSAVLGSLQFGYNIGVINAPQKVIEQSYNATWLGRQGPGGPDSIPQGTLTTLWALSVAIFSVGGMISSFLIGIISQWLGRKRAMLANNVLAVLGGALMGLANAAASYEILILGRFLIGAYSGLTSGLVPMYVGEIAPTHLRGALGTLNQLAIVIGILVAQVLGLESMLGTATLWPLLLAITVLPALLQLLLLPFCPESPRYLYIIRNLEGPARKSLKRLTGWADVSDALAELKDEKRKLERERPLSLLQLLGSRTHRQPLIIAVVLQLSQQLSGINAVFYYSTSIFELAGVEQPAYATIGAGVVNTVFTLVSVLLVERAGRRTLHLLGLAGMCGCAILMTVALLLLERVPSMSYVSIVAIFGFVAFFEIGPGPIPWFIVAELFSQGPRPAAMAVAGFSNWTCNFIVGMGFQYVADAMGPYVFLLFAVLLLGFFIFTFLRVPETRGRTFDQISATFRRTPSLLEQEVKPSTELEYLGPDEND

[3] = molecular target: T1, Solute carrier family 2, facilitated glucose transporter member 2; test: Inhibition of human GLUT2 expressed in Xenopus laevis oocytes assessed as reduction in [3H] 2-deoxyglucose uptake by scintillation spectrometric method; format: cell-based
[4] = molecular target: T3, Solute carrier family 2, facilitated glucose transporter member 4 (Mus musculus, UniProt P14142); test: Inhibition of GLUT4 in mouse 3T3L1 cells assessed as reduction in insulin-stimulated 2-deoxy-D-[14C]glucose uptake; format: cell-based
T3 sequence (P14142 whole entry): T2 sequence (P19357 whole entry) with E11D, Q17R, I208L, L218I, L273M, L316S, E320G, S379A, R467K, T482A

[5] = molecular target: T4, Solute carrier family 2, facilitated glucose transporter member 1 (Homo sapiens, UniProt P11166); test: Competitive inhibition of GLUT1 in human HL60 cells assessed as reduction in 2-[1,2-3H]deoxy-D-glucose uptake measured for 30 secs by double reciprocal plot analysis; format: cell-based
T4 sequence (P11166 whole entry): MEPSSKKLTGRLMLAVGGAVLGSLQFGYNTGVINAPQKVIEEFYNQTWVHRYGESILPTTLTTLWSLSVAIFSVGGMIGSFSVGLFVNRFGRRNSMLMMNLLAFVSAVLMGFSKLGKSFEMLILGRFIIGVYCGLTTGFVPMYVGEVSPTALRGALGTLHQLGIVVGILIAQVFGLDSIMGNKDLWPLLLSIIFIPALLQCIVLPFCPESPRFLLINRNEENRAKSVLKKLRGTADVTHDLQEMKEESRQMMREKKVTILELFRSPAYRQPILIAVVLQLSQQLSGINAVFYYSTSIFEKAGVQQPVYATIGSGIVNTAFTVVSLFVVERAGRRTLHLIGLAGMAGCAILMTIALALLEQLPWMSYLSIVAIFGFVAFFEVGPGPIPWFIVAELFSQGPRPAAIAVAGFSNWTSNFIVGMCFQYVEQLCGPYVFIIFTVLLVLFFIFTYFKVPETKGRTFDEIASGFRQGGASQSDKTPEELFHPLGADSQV

[6] = molecular target: T4, Solute carrier family 2, facilitated glucose transporter member 1; test: Competitive inhibition of GLUT1 (unknown origin) expressed in CHO cells assessed as reduction in 2-[1,2-3H]deoxy-D-glucose uptake measured for 30 secs by double reciprocal plot analysis; format: cell-based
[7] = molecular target: T4, Solute carrier family 2, facilitated glucose transporter member 1; test: Competitive inhibition of glucose displaceable binding of [4-3H]cytochalasin B to GLUT1 in human erythrocyte membranes after 10 mins by double reciprocal plot analysis; format: cell membranes
RCC4 = test: Growth inhibition of VHL-deficient human RCC4 cells by XTT assay; format: functional, cell-based
PC-3 = test: Cytotoxicity against human PC3 cells after 48 hrs by SRB assay; format: functional, cell-based; conditions: PC-3, 48 h
[8] = Non-competitive inhibition of glucose transporter in HTR-8/SVneo cells assessed as reduction in [3H]DG uptake preincubated for 20 mins followed by [3H]DG addition after 10 mins by liquid scintillation counting method; format: cell-based; conditions: Homo sapiens
[9] = molecular target: T3, Solute carrier family 2, facilitated glucose transporter member 4; test: Competitive inhibition of GLUT4 in mouse 3T3L1 cells assessed as reduction in insulin-stimulated [3H]-2-deoxy-D-glucose uptake preincubated for 20 mins followed by measured for [3H]-2-deoxy-D-glucose addition measured after 1 to 10 mins by Lineweaver-Burk plot analysis; format: cell-based
[10] = molecular target: T5, Solute carrier family 2, facilitated glucose transporter member 4 (Homo sapiens, UniProt P14672); test: Inhibition of human GLUT4 expressed in CHO cells assessed as reduction in glucose uptake; format: cell-based
T5 sequence (P14672 whole entry): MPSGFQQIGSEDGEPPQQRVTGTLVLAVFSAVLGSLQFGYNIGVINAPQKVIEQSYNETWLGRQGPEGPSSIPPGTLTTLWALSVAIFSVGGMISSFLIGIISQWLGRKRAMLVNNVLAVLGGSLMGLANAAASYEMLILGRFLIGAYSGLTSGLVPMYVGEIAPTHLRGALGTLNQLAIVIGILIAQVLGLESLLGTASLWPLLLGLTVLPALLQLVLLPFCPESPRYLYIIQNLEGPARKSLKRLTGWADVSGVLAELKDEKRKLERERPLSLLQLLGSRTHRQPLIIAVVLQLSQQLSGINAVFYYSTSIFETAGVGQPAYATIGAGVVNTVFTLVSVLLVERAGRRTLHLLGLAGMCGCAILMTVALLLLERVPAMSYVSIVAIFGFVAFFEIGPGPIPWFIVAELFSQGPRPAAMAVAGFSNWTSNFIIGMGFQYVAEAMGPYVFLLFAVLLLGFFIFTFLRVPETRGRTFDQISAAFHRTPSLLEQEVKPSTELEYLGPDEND

[11] = molecular target: T4, Solute carrier family 2, facilitated glucose transporter member 1; test: Inhibition of human GLUT1 expressed in human DLD1 cells assessed as reduction in glucose uptake; format: cell-based
[12] = molecular target: T6, Solute carrier family 2, facilitated glucose transporter member 1 (Homo sapiens) (UniProt P11166); test: Inhibition of GLUT1 in human HT1080 cells assessed as reduction in [3H]2-deoxy-D-glucose uptake at 10 uM preincubated for 30 mins followed by [3H]2-deoxy-D-glucose addition measured after 60 mins by microbeta scintillation counting method relative to control; format: cell-based
T6 sequence (whole entry): T4 sequence (P11166 whole entry)

A549 = test: Antitumor activity against human A549 cells xenografted in NU/J nude mouse assessed as inhibition of tumor volume at 10 mg/kg, ip administered daily for 10 weeks measured every 7 days during compound dosing relative to control; format: functional
[13] = molecular target: T4, Solute carrier family 2, facilitated glucose transporter member 1; test: Mixed type non-competitive inhibition of glucose displaceable binding of [4-3H]cytochalasin B to GLUT1 in human erythrocyte membranes after 10 mins; format: cell membranes

O=c1c(O)c(-c2ccc(O)c(O)c2)oc2cc(O)cc(O)c12 [QUERCETIN]
pIC50 [1]: 4.77 to 4.92
pKi [2]: 4.80
pIC50 [3]: 4.77 to 4.92

O=c1c(-c2ccc(O)cc2)coc2cc(O)cc(O)c12 [GENISTEIN]
pIC50 [4]: 4.70
pKi [5]: 5.15
pKi [6]: 5.15
pKi [7]: 5.15

CC(C)(C)c1ccc(S(=O)(=O)NCc2ccc(C(=O)Nc3cccnc3)cc2)cc1
pIC50 (RCC4): 5.10

O=C1C[C@@H]2/C(=C(O)\C=C\c3ccccc3)C(=O)C=C[C@@H]2O1 [CRYPTOCARYONE]
pIC50 (PC-3): 5.80

COc1cc(O)c(CC=C(C)C)c(O)c1C(=O)/C=C/c1ccc(O)cc1 [XANTHOHUMOL]
pIC50 [8]: 5.45

COc1cc([C@H]2Oc3cc(-c4oc5cc(O)cc(O)c5c(=O)c4O)ccc3O[C@@H]2CO)ccc1O
pKi [9]: 3.94

O=c1c(O)c(-c2cc(O)c(O)c(O)c2)oc2cc(O)cc(O)c12 [MYRICETIN]
pIC50 [1]: 4.77 to 4.92
pKi [2]: 4.47
pIC50 [3]: 4.77 to 4.92

C[C@H](NC(=O)[C@H](Cc1ccc(F)cc1)NC(=O)Cc1cccc(O)c1)c1ccccc1
pIC50 [10]: 6.71
pIC50 [11]: 6.57

CC(C)NC(=O)COc1cccc(-c2nc(Nc3ccc4[nH]ncc4c3)c3ccccc3n2)c1
inhibition [12]: > 90%

O=C(Oc1cccc(F)c1OC(=O)c1cccc(O)c1)c1cccc(O)c1
inhibition in vivo at 10 mg/kg (A549): > 70%

Cc1cc2c(C(C)C)c(O)c(O)c(C=O)c2c(O)c1-c1c(C)cc2c(C(C)C)c(O)c(O)c(C=O)c2c1O [GOSSYPOL]
pKi [13]: 4.70

Reference: ChEMBL document CHEMBL3992488, “Anticancer agents interacting with membrane glucose transporters” (Medchemcomm, 2016)
